Experiments:
pigweed = experiment: Test A pre-/postemergence herbicide test; assay type: in vivo, Amaranthus retroflexus
How it was run: (§1)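 Visual injury ratings, 0 = no effect, 100 = complete control, taken ~10 days after treatment against untreated greenhouse controls. Preemergence: directed soil spray onto seeded loam/sand pots. Postemergence: spray onto plants at one- to two-leaf stage, 2–10 cm tall.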

kochia = experiment: Test A pre-/postemergence herbicide test; assay type: in vivo, Kochia scoparia
How it was run: as §1

blackgrass = experiment: Test A postemergence herbicide test; assay type: in vivo, Alopecurus myosuroides
How it was run: (§2)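 Potted in loam soil/sand blend; postemergence application at 1–2 leaf stage (2–10 cm). Greenhouse ~10 d. Visual injury vs untreated, 0–100 scale; 100 = complete control.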

barnyardgrass [1] = experiment: Test A pre-/postemergence herbicide test; assay type: in vivo, Echinochloa crus-galli
How it was run: as §1

rice = experiment: Test B flooded paddy test; assay type: in vivo, Oryza sativa; conditions: 500 g ai/ha, Flood; scale of 0 to 100 where 0 is no effect and 100 is complete control
How it was run: (§3)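 First, plants reach the 2-leaf stage; next, pots are flooded to 3 cm and compound is delivered into the water; finally, after 13 to 15 greenhouse days at constant depth, injury is graded visually from 0 to 100 against controls.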

giant foxtail = experiment: Test A pre-/postemergence herbicide test; assay type: in vivo, Setaria faberii
How it was run: as §1

ragweed = experiment: Test A pre-/postemergence herbicide test; assay type: in vivo, Ambrosia elatior
How it was run: as §1

barnyardgrass [2] = experiment: Test B flooded paddy test; assay type: in vivo, Echinochloa crus-galli; conditions: 500 g ai/ha, Flood; scale of 0 to 100 where 0 is no effect and 100 is complete control
How it was run: as §3

galium = experiment: Test A postemergence herbicide test; assay type: in vivo, Galium aparine
How it was run: as §2

corn = experiment: Test A pre-/postemergence herbicide test; assay type: in vivo, Zea mays; conditions: Postemergence
How it was run: as §1

ryegrass, Italian = experiment: Test A pre-/postemergence herbicide test; assay type: in vivo, Lolium multiflorum
How it was run: as §1

ducksalad = experiment: Test B flooded paddy test; assay type: in vivo, Heteranthera limosa; conditions: 500 g ai/ha, Flood; scale of 0 to 100 where 0 is no effect and 100 is complete control
How it was run: as §3

wheat = experiment: Test A pre-/postemergence herbicide test; assay type: in vivo, Triticum aestivum; conditions: Postemergence
How it was run: as §1

sedge, umbrella = experiment: Test B flooded paddy test; assay type: in vivo, Cyperus difformis; conditions: 500 g ai/ha, Flood; scale of 0 to 100 where 0 is no effect and 100 is complete control
How it was run: as §3

[3] = Postemergence, 125 g ai/ha, visual rating on 0 to 100 scale (0 no effect, 100 complete control), approx. 10 days
[4] = Postemergence, 500 g ai/ha, 0 to 100 scale (0 no effect, 100 complete control)
[5] = Preemergence, 125 g ai/ha, 0 to 100 scale where 0 is no effect and 100 is complete control
[6] = preemergence, 500 g ai/ha, 0 to 100 scale, 0 is no effect and 100 is complete control
[7] = 125 g ai/ha, visual rating on 0 to 100 scale (0 no effect, 100 complete control), approx. 10 days
[8] = 500 g ai/ha, 0 to 100 scale (0 no effect, 100 complete control)
[9] = Preemergence, 500 g ai/ha, visual rating on 0 to 100 scale (0 no effect, 100 complete control)

SMILES	Plant response rating, Pigweed (pigweed; [3])	Plant response rating, Pigweed (pigweed; [4])	Plant response rating, Pigweed (pigweed; [5])	Plant response rating, Kochia (kochia; [3])	Plant response rating, Kochia (kochia; [4])	Plant response rating, Kochia (kochia; [5])	Plant response rating, Blackgrass (blackgrass; [7])	Plant response rating, Blackgrass (blackgrass; [8])	Plant response rating, Barnyardgrass (barnyardgrass [1]; [3])	Plant response rating, Barnyardgrass (barnyardgrass [1]; [4])	Plant response rating, Barnyardgrass (barnyardgrass [1]; [5])	Plant response rating, Rice (rice)	Plant response rating, Foxtail, Giant (giant foxtail; [3])	Plant response rating, Foxtail, Giant (giant foxtail; [4])	Plant response rating, Foxtail, Giant (giant foxtail; [5])	Plant response rating, Ragweed (ragweed; [3])	Plant response rating, Ragweed (ragweed; [4])	Plant response rating, Ragweed (ragweed; [5])	Plant response rating, Barnyardgrass (barnyardgrass [2])	Plant response rating, Galium (galium; [7])	other results
O=C1NCC(c2cnn(CC(F)(F)F)c2)C1C(=O)Nc1ccccc1C(F)(F)F (stereo not drawn) [Compound 300]	0	0	0	0	0	0	0	0	0	0	0	0	0	0	0	0	0	0	0	0	Plant response rating, Pigweed (pigweed; [6]): 0; Plant response rating, Kochia (kochia; [6]): 0; Plant response rating, Barnyardgrass (barnyardgrass [1]; [6]): 0; Plant response rating, Foxtail, Giant (giant foxtail; [6]): 0; Plant response rating, Ragweed (ragweed; [6]): 0; Plant response rating, Galium (galium; [8]): 0; Plant response rating, Corn (corn; [7]): 0; Plant response rating, Corn (corn; [8]): 0; Plant response rating, Ryegrass, Italian (ryegrass, Italian; [3]): 0; Plant response rating, Ryegrass, Italian (ryegrass, Italian; [4]): 0; Plant response rating, Ryegrass, Italian (ryegrass, Italian; [5]): 0; Ryegrass, Italian plant response rating (ryegrass, Italian; [9]): 0; Plant response rating, Ducksalad (ducksalad): 0; Plant response rating, Wheat (wheat; [7]): 0; Plant response rating, Wheat (wheat; [8]): 0; Plant response rating, Sedge, Umbrella (sedge, umbrella): 0
O=C1NCC(c2cccc(Br)c2)C1C(=O)Nc1ccccc1Cl (stereo not drawn) [Compound 311]	0	0	0	0	0	0	0	30	60	80	70	0	60	70	80	0	0	0	50	0	Pigweed plant response rating (pigweed; [9]): 0; Kochia plant response rating (kochia; [9]): 0; Barnyardgrass plant response rating (barnyardgrass [1]; [9]): 80; Foxtail, Giant plant response rating (giant foxtail; [9]): 90; Ragweed plant response rating (ragweed; [9]): 0; Plant response rating, Galium (galium; [8]): 0; Plant response rating, Corn (corn; [7]): 0; Plant response rating, Corn (corn; [8]): 0; Plant response rating, Ryegrass, Italian (ryegrass, Italian; [3]): 0; Plant response rating, Ryegrass, Italian (ryegrass, Italian; [4]): 0; Plant response rating, Ryegrass, Italian (ryegrass, Italian; [5]): 0; Ryegrass, Italian plant response rating (ryegrass, Italian; [9]): 0; Plant response rating, Ducksalad (ducksalad): 98; Plant response rating, Wheat (wheat; [7]): 0; Plant response rating, Wheat (wheat; [8]): 0; Plant response rating, Sedge, Umbrella (sedge, umbrella): 0
O=C1NCC(c2cccc(C(F)(F)F)c2)C1C(=O)Nc1cc(F)ccc1F (stereo not drawn) [Compound 314]	0	0	0	0	0	0	0	0	30	80	20	15	60	80	30	0	0	0	25	0	Pigweed plant response rating (pigweed; [9]): 0; Kochia plant response rating (kochia; [9]): 0; Barnyardgrass plant response rating (barnyardgrass [1]; [9]): 80; Foxtail, Giant plant response rating (giant foxtail; [9]): 90; Ragweed plant response rating (ragweed; [9]): 0; Plant response rating, Galium (galium; [8]): 0; Plant response rating, Corn (corn; [7]): 0; Plant response rating, Corn (corn; [8]): 0; Plant response rating, Ryegrass, Italian (ryegrass, Italian; [3]): 0; Plant response rating, Ryegrass, Italian (ryegrass, Italian; [4]): 0; Plant response rating, Ryegrass, Italian (ryegrass, Italian; [5]): 0; Ryegrass, Italian plant response rating (ryegrass, Italian; [9]): 0; Plant response rating, Ducksalad (ducksalad): 40; Plant response rating, Wheat (wheat; [7]): 0; Plant response rating, Wheat (wheat; [8]): 0; Plant response rating, Sedge, Umbrella (sedge, umbrella): 0
CC(C)c1cccc(C2CNC(=O)C2C(=O)Nc2ccccc2C(F)(F)F)c1 (stereo not drawn) [Compound 320]	0	0	0	20	20	0	0	20	50	90	20	0	30	70	30	0	30	0	45	0	Pigweed plant response rating (pigweed; [9]): 0; Kochia plant response rating (kochia; [9]): 20; Barnyardgrass plant response rating (barnyardgrass [1]; [9]): 80; Foxtail, Giant plant response rating (giant foxtail; [9]): 90; Ragweed plant response rating (ragweed; [9]): 30; Plant response rating, Galium (galium; [8]): 0; Plant response rating, Corn (corn; [7]): 0; Plant response rating, Corn (corn; [8]): 0; Plant response rating, Ryegrass, Italian (ryegrass, Italian; [3]): 0; Plant response rating, Ryegrass, Italian (ryegrass, Italian; [4]): 30; Plant response rating, Ryegrass, Italian (ryegrass, Italian; [5]): 20; Ryegrass, Italian plant response rating (ryegrass, Italian; [9]): 50; Plant response rating, Ducksalad (ducksalad): 100; Plant response rating, Wheat (wheat; [7]): 0; Plant response rating, Wheat (wheat; [8]): 0; Plant response rating, Sedge, Umbrella (sedge, umbrella): 0

From patent US10294202B2, “Pyrrolidinones as herbicides” (FMC Corporation, priority 2013, dated 2019)
